# pIC50: −log10 of the molar value. “Also recorded” adds a separate entry of the source.
# Legend:
# [1] = tested on: intact cells; experiment: Assays exemplified in the patent (not specified further) for known succinate esters; assay type: cell-based
# Excerpt: I. Assays for Evaluating Enhancement and Inhibition of Mitochondrial Energy Producing Function in Intact Cells
# Four Typical Evaluation Protocols in Intact Cells are Utilized.
# [2] = tested on: intact human platelets; experiment: Intervention on metformin- or rotenone-induced lactate production with cell-permeable succinate prodrugs; assay type: cell-based; conditions: for effect on rotenone-induced lactate production: 2 μM rotenone, repeated additions of 250 μM; for effect on lactate production of metformin-incubated cells: 10 mM metformin, additions of 250 μM each 30 minutes
# Procedure: Lactate production of intact human platelets was determined in PBS containing 10 mM glucose.
# (§1) Lactate levels are determined every 2 h (or more frequent eg every 30 min) using the Lactate Pro™ 2 blood lactate test meter (Arkray, Alere AB, Lidingö, Sweden) or similar types of measurements. Incubation is performed at 37° C. pH is measured at start, after 4 and after 8 h (or more frequently) of incubation using a Standard pH Meter, e.g. PHM210 (Radiometer, Copenhagen, Denmark). Drug candidates are added to the assay from start or following 30-60 min at concentrations within the range 10 μM-5 mM. […] In order to evaluate the specificity of the drug candidate, it is also tested in combination with a down-stream inhibitor of respiration such as the complex III inhibitor Antimycin at 1 μg/mL, which should abolish the effect of the drug candidate and restore the production of lactate. The use of antimycin is therefore also a control for undue effects of drug candidates on the lactate producing ability of the cells used in the assay. (See e.g. FIGS. 9, 10 and 11).
# Lactate levels were measured in intervals of 30 min with the onset of the experiment. Additionally, pH was measured prior to the first addition of vehicle (dmso, control), the different cell-permeable succinate prodrugs (NV118, NV189, NV241) or succinate and at the end of the experiment.
# [3] = tested on: cells with inhibited complex I; experiment: Screening assay (1): enhancement of mitochondrial energy producing function in cells with inhibited respiratory complex I (high-resolution respirometry); assay type: cell-based, human; set-up: key: graded either +, ++ or +++ in increasing order of potency; graded either +, ++ or +++ in increasing order of potency; graded either +, ++ or +++ in increasing order of potency; (+): Brackets [( )] indicate an intermediate effect; (++): Brackets [( )] indicate an intermediate effect; (+++) is between ++ and +++; conditions: increase in mitochondrial oxygen consumption in cells with inhibited complex I
# Procedure: (§2) Measurement of mitochondrial respiration is performed in a high-resolution oxygraph (Oxygraph-2k, Oroboros Instruments, Innsbruck, Austria) at a constant temperature of 37° C. Isolated human platelets, white blood cells, fibroblasts, human heart muscle fibers or other cell types containing live mitochondria are suspended in a 2 mL glass chamber at a concentration sufficient to yield oxygen consumption in the medium of ≥10 pmol O2 s^−1 mL^−1.
# (1) Assay for Enhancement of Mitochondrial Energy Producing Function in Cells with Inhibited Respiratory Complex I
# Cells are placed in a buffer containing 110 mM sucrose, HEPES 20 mM, taurine 20 mM, K-lactobionate 60 mM, MgCl2 3 mM, KH2PO4 10 mM, EGTA 0.5 mM, BSA 1 g/l, pH 7.1. […] Compounds dissolved in DMSO are titrated in a range of 10 μM to 10 mM final concentration. Subsequently, cell membranes are permeabilised with digitonin (1 mg/1*10^6 plt) to allow entry of extracellularly released energy substrate or cell impermeable energy substrates. After stabilized respiration, Succinate 10 mM is added as a reference to enable respiration downstream of complex I. After the respiration stabilized the experiment is terminated by addition of Antimycin at final concentration 1 μg/mL and any residual non-mitochondrial oxygen consumption is measured. An increase in respiration rate in the described protocol is tightly coupled to ATP synthesis by oxidative phosphorylation unless cells are uncoupled (i.e. proton leak without production of ATP). Uncoupling is tested for by addition of the ATP synthase inhibitor oligomycin (1-2 μg mL^−1) in a protocol 3 where the extent of uncoupling corresponds to the respiratory rate following oligomycin addition.
# [4] = tested on: intact cells; experiment: Screening assay (2): enhancement and inhibition of mitochondrial energy producing function in intact cells (FCCP uncoupled); assay type: cell-based, human; set-up: key to Convergent (FCCP): graded either +, ++ or +++ in increasing order of potency; graded either +, ++ or +++ in increasing order of potency; graded either +, ++ or +++ in increasing order of potency; (+): Brackets [( )] indicate an intermediate effect; (++): Brackets [( )] indicate an intermediate effect; (+++) is between ++ and +++; conditions: for Convergent (FCCP): increase in mitochondrial oxygen consumption induced by the compound, screening assay 2 (uncoupled conditions); for Toxicity: lowest concentration during compound titration at which a decrease in oxygen consumption is seen, screening assay 2
# Procedure: as §2
# (2) Assay for Enhancement and Inhibition of Mitochondrial Energy Producing Function in Intact Cells
# In the second protocol the same buffer is used as described above. After basal respiration is established, the mitochondrial uncoupler FCCP is added at a concentration of 2 nM to increase metabolic demand.
# [5] = tested on: intact cells; experiment: Screening assay (3): assay to assess uncoupling in intact cells; assay type: cell-based, human; set-up: key: graded either +, ++ or +++ in increasing order of potency; graded either +, ++ or +++ in increasing order of potency; graded either +, ++ or +++ in increasing order of potency; (+): Brackets [( )] indicate an intermediate effect; (++): Brackets [( )] indicate an intermediate effect; (+++) is between ++ and +++; conditions: for Convergent (Routine): increase in mitochondrial oxygen consumption induced by the compound; for Uncoupling: level of oxygen consumption after addition of oligomycin
# Procedure: Measurement of mitochondrial respiration is performed in a high-resolution oxygraph (Oxygraph-2k, Oroboros Instruments, Innsbruck, Austria) at a constant temperature of 37° C. […] In the third protocol, the same buffer as described above is used. […] Subsequently, the ATP-synthase-inhibitor Oligomycin is added. A reduction in respiration is a measure of how much of the oxygen consumption that is coupled to ATP synthesis. No, or only a slight, reduction indicate that the compound is inducing a proton leak over the inner mitochondrial membrane. The uncoupler FCCP is then titrated to induce maximum uncoupled respiration. […] The experiment is terminated by the addition of 1 μg/mL of the complex III inhibitor Antimycin to measure non-mitochondrial oxygen consumption.
# [6] = tested on: Intact human blood cells; experiment: Screening assay (4): enhancement of mitochondrial energy producing function in cells with inhibited respiratory complex I in human plasma; assay type: cell-based; set-up: key: graded either +, ++ or +++ in increasing order of potency; graded either +, ++ or +++ in increasing order of potency; graded either +, ++ or +++ in increasing order of potency; (+): Brackets [( )] indicate an intermediate effect; (++): Brackets [( )] indicate an intermediate effect; (+++) is between ++ and +++; conditions: increase in mitochondrial oxygen consumption in cells with inhibited complex I incubated in human plasma
# Procedure: Measurement of mitochondrial respiration is performed in a high-resolution oxygraph (Oxygraph-2k, Oroboros Instruments, Innsbruck, Austria) at a constant temperature of 37° C. […] Intact human blood cells are incubated in plasma from the same donor. […] The experiment is terminated by addition of Antimycin at final concentration 1 μg/mL and any residual non-mitochondrial oxygen consumption is measured.
# [7] = tested on: intact human platelets; experiment: Effect of metformin and phenformin on lactate production and pH of intact human platelets; assay type: cell-based; conditions: metformin 1 and 10 mM, phenformin 0.5 mM, rotenone 2 μM
# Procedure: as §1
# Incubation was performed at 37° C. at a stirrer speed of 750 rpm, and pH was measured at start, after 4 and after 8 h of incubation (n=4) using a PHM210 Standard pH Meter (Radiometer, Copenhagen, Denmark).
# [8] = tested on: permeabilized human platelets
# Procedure: (§3) Real-time respirometric measurements were performed using high-resolution oxygraphs (Oxygraph-2k, Oroboros Instruments, Innsbruck, Austria). The experimental conditions during the measurements were the following: 37° C., 2 mL active chamber volume and 750 rpm stirrer speed. […] For data recording, DatLab software version 4 and 5 were used (Oroboros Instruments, Innsbruck, Austria). Settings, daily calibration and instrumental background corrections were conducted according to the manufacturer's instructions. […] Lactate production of intact human platelets was determined in PBS containing 10 mM glucose. All measurements were performed at a platelet concentration of 200×10^6 cells per mL or a PBMC concentration of 5×10^6 cells per mL.
# (§4) All respiratory, lactate and pH data are expressed as mean±SEM. Ratios are plotted as individuals and means. One-way ANOVA was used for one-factor comparison of three or more groups (concentration of drugs) and two-way mixed model ANOVA was used for two-factor comparison (time and concentration of drugs/treatment) of three or more groups. Post-hoc tests to compensate for multiple comparisons were done according to Holm-Sidak. Correlations were expressed as r^2 and P-values. […]
# (§5) In order to investigate the specific target of biguanide toxicity, a protocol was applied using digitonin permeabilization of the blood cells and sequential additions of respiratory complex-specific substrates and inhibitors in MiR05 medium. […] Maximal uncoupled respiratory electron transport system capacity supported by convergent input through complex I and II (ETSCI+II) was evaluated by subsequent titration with the protonophore carbonyl-cyanide p-(trifluoromethoxy) phenylhydrazone (FCCP). […] Complex IV activity was calculated by subtracting the sodium azide value from the TMPD value. With exception of complex IV activity, all respiratory states were measured at steady-state and corrected for ROX. Complex IV activity was measured after ROX determination and not at steady-state.
# [9] = tested on: permeabilized human platelets; experiment: cells; conditions: Platelet, read-out: IC50 for inhibition of OXPHOSCI
# Procedure: as §3, §4, §5
# [10] = patients; cited from earlier work
# [11] = tested on: intact PBMCs; experiment: Lactate release of intact PBMCs exposed to metformin; assay type: cell-based, human; conditions: 10 mM metformin, data not shown
# [12] = tested on: intact human platelets
# Procedure: Real-time respirometric measurements were performed using high-resolution oxygraphs (Oxygraph-2k, Oroboros Instruments, Innsbruck, Austria). The experimental conditions during the measurements were the following: 37° C., 2 mL active chamber volume and 750 rpm stirrer speed. […] For data recording, DatLab software version 4 and 5 were used (Oroboros Instruments, Innsbruck, Austria). Settings, daily calibration and instrumental background corrections were conducted according to the manufacturer's instructions. […] All measurements were performed at a platelet concentration of 200×10^6 cells per mL or a PBMC concentration of 5×10^6 cells per mL.
# Venous blood from 18 healthy adults (11 males and 7 females) was drawn in K2EDTA tubes (BD Vacutainer® Brand Tube with dipotassium EDTA, BD, Plymouth, UK) according to clinical standard procedure after written informed consent was acquired. For platelet isolation the whole blood was centrifuged (Multifuge 1 S—R Heraeus, Thermo Fisher Scientifics, Waltham, USA) at 500 g at room temperature (RT) for 10 min. Platelet-rich plasma was collected to 15 mL falcon tubes and centrifuged at 4600 g at RT for 8 min. The resulting pellet was resuspended in 1-2 mL of the donor's own plasma. […] The blood remaining after isolation of platelets was washed with an equal volume of physiological saline and layered over 3 mL of Lymphoprep™. After centrifugation at 800 g at RT (room temperature) for 30 min the PBMC layer was collected and washed with physiological saline. Following a centrifugation at 250 g at RT for 10 min the pellet of PBMCs was resuspended in two parts of physiological saline and one part of the donor's own plasma. Cell count for both PBMCs and platelets were performed using an automated hemocytometer (Swelab Alfa, Boule Medical AB, Stockholm, Sweden).
# Routine respiration was followed for 60 min at 37° C. before the ATP-synthase inhibitor oligomycin (1 μg mL^−1) was added to assess LEAK respiration. Maximal uncoupled respiratory electron transport system capacity supported by endogenous substrates (ETS) was reached by titration of FCCP.
# [13] = tested on: permeabilized human PBMCs; experiment: cells; conditions: PBMC, read-out: IC50 for inhibition of OXPHOSCI
# Procedure: Real-time respirometric measurements were performed using high-resolution oxygraphs (Oxygraph-2k, Oroboros Instruments, Innsbruck, Austria). The experimental conditions during the measurements were the following: 37° C., 2 mL active chamber volume and 750 rpm stirrer speed. […] For data recording, DatLab software version 4 and 5 were used (Oroboros Instruments, Innsbruck, Austria). Settings, daily calibration and instrumental background corrections were conducted according to the manufacturer's instructions. […] Standard non-linear curve fitting was applied to calculate half maximal inhibitory concentration (IC50) values. […] Maximal uncoupled respiratory electron transport system capacity supported by convergent input through complex I and […] ) was evaluated by subsequent titration with the protonophore carbonyl-cyanide p-(trifluoromethoxy) phenylhydrazone (FCCP). […] The complex III inhibitor antimycin (1 μg mL^-1) was then given to reveal residual oxygen consumption (ROX). […] Complex IV activity was calculated by subtracting the sodium azide value from the TMPD value. With exception of complex IV activity, all respiratory states were measured at steady-state and corrected for ROX. Complex IV activity was measured after ROX determination and not at steady-state.
# [14] = Al-Abri et al., 2013; cited from earlier work
Compound,CII [3],Convergent (FCCP) [4],Toxicity [4] [mM],Convergent (Routine) [5],Uncoupling [5],CII (plasma) [6],other results
COC(=O)CCC(=O)O [monomethyl succinate],–,–,–,–,–,–,activity in the assays exemplified [1]: inactive
CC(=O)OC(C)OC(=O)CCC(=O)OC(C)OC(C)=O (stereo not drawn) [NV189],–,–,–,–,–,–,effect on rotenone-induced lactate production [2]: attenuated; also recorded: brought back to normal; effect on lactate production of metformin-incubated cells [2]: significantly decreased
"CCN(CC)C(=O)COCCSC(=O)CCC(=O)O [01-193, 4-(2-(2-(diethylamino)-2-oxoethoxy)ethylthio)-4-oxobutanoic acid]",+,+,5,(++),+,(+),–
"CC(=O)NCC(C)(C)SC(=O)CCC(=O)O [01-188, 4-(1-acetamido-2-methylpropan-2-ylthio)-4-oxobutanoic acid]",+,+++,5,+++,(+),+,–
COC(=O)CCC(=O)OC [dimethyl succinate],–,–,–,–,–,–,activity in the assays exemplified [1]: inactive
"CC(=O)NCCSC(=O)CCC(=O)O [01-108, 4-(2-acetamidoethylthio)-4-oxobutanoic acid]",(++),++,10,++,+,(+),–
CCOC(=O)CCC(=O)OCC [Diethyl succinate],–,–,–,–,–,–,activity in the assays exemplified [1]: inactive
CC(=O)OCOC(=O)CCC(=O)OC(C)OC(C)=O (stereo not drawn) [NV241],–,–,–,–,–,–,effect on rotenone-induced lactate production [2]: attenuated; effect on lactate production of metformin-incubated cells [2]: significantly decreased
CC(=O)OCOC(=O)CCC(=O)OCOC(C)=O [NV118],–,–,–,–,–,–,effect on rotenone-induced lactate production [2]: attenuated; effect on lactate production of metformin-incubated cells [2]: significantly decreased
"CCC(=O)N[C@@H](CSC(=O)CCC(=O)SC[C@H](NC(=O)CC)C(=O)OC)C(=O)OC [01-205, (R)-methyl 3-(4-((R)-3-methoxy-3-oxo-2-propionamidopropylthio)-4-oxobutanoylthio)-2-propionamidopropanoate]",++,++,5,+++,(+),+,–
"CCC(=O)N[C@@H](CSC(=O)CCC(=O)O)C(=O)O [01-041, (R)-4-(2-carboxy-2-propionamidoethylthio)-4-oxobutanoic acid]",++,+++,5,+,(+),+,–
[H]/N=C(/N)N/C(=N/[H])NCCc1ccccc1 [phenformin],–,–,–,–,–,–,"lactate produced over 8 h of treatment compared to control [7]: significantly more lactate; effect on OXPHOSCI, OXPHOSCI+II and ETSCI+II [8]: inhibited; potency of inhibition of OXPHOSCI relative to metformin [8]: 20 fold; pIC50 [9]: 4.24; incidence of lactic acidosis [10]: 4 cases per 10000 treatment-years"
O=C(O)CCC(=O)O [succinate],–,–,–,–,–,–,effect on lactate production of metformin-incubated cells [2]: did not reduce; also recorded: did not change this
"CCC(=O)NCCSC(=O)CCC(=O)O [01-114, 4-oxo-4-(2-propionamidoethylthio)butanoic acid]",++,++,10,+++,(+),+,–
"CCC(=O)N[C@@H](CSC(=O)CCC(=O)SC[C@H](NC(=O)CC)C(=O)N(CC)CC)C(=O)N(CC)CC [01-185, S,S-bis((R)-3-(diethylamino)-3-oxo-2-propionamidopropyl) butanebis(thioate)]",+,+,2,(+),(+),+,–
CN(C)C(=N)N=C(N)N [metformin],–,–,–,–,–,–,"lactate release of intact PBMCs [11]: increased lactate release; LEAK respiration in intact cells ([12]; data not shown): not significantly changed; toxic concentration seen in the present study ([12]; human blood cells): 1 mM; reversibility of complex I inhibition upon removal of the drug ([12]; washing and permeabilizing the cells): did not seem to be reversible; pIC50 [13]: 3.35; serum level in a case report of involuntary intoxication, prior to hemodialysis [14]: over 2 mM"
